Results as given in patent publication US9387221B2, “SDF-1 binding nucleic acids and the use thereof in cancer treatment” (NOXXON Pharma AG, priority 2010, dated 2016).
{PEG40k} = 40 kDa polyethylene glycol

Legend:
human SDF-1α = human SDF-1α (Homo sapiens, UniProt P48061); test: Surface plasmon resonance measurement (Biacore 2000); type: binding; conditions: Spiegelmer (L-RNA), 37° C.
Experimental: The Biacore 2000 instrument (Biacore AB, Uppsala, Sweden) was used to analyze binding of Spiegelmers to human SDF-1α. When coupling of human SDF-1α was to be achieved via amine groups, human SDF-1α was dialyzed against water for 1-2 h (Millipore VSWP mixed cellulose esters; pore size, […]) to remove interfering amines. CM4 sensor chips (Biacore AB, Uppsala, Sweden) were activated before protein coupling by a 35-μl injection of a 1:1 dilution of 0.4 M NHS and 0.1 M EDC at a flow of 5 μl/min. Human MCP-1 or human SDF-1α was then injected in concentrations of 0.1-1.5 μg/ml at a flow of 2 μl/min until the instrument's response was in the range of 1000-2000 RU (relative units). Unreacted NHS esters were deactivated by injection of 35 μl ethanolamine hydrochloride solution (pH 8.5) at a flow of 5 μl/min. The sensor chip was primed twice with binding buffer and equilibrated at 10 μl/min for 1-2 hours until the baseline appeared stable. For all proteins, kinetic parameters and dissociation constants were evaluated by a series of Spiegelmer injections at concentrations of 1000, 500, 250, 125, 62.5, 31.25, and 0 nM in selection buffer (Tris-HCl, 20 mM; NaCl, 137 mM; KCl, 5 mM; CaCl2, 1 mM; MgCl2, 1 mM; Tween20, 0.1% [w/v]; pH 7.4). In all experiments, the analysis was performed at 37° C. using the Kinject command defining an association time of 180 and a dissociation time of 360 seconds at a flow of 10 μl/min. Data analysis and calculation of dissociation constants (KD) was done with the BIAevaluation 3.0 software (BIACORE AB, Uppsala, Sweden) using the Langmuir 1:1 stochiometric fitting algorithm.

SDF-1 = SDF-1 (Homo sapiens, UniProt P48061); test: Inhibition of SDF-1-induced chemotaxis, Nalm-6 cells; type: cell-based; conditions: 0.3 nM human SDF-1
Chain of SDF-1 (P48061 22-89): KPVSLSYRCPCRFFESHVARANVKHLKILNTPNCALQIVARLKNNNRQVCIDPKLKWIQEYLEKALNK
Experimental: The human T cell leukemia cell line Jurkat, the human leukemic monocyte lymphoma cell line U937, the human pre-B cell leukemia cell line BV-173 and human pre-B ALL cell line Nalm-6 express CXCR4. […] All cells used were obtained from the DSMZ (Braunschweig). All cell lines were cultivated at 37° C. and 5% CO2 in RPMI 1640 medium with Glutamax (Invitrogen, Karlsruhe, Germany) which contains 10% fetal bovine serum, 100 units/ml penicillin and 100 μg/ml streptomycin (Invitrogen, Karlsruhe, Germany). One day before the experiment, cells were seeded in a new T175 flask with a density of 0.3×10^6/ml (Jurkat, U937, BV-173) or 0.75×10^6/ml (Nalm-6), respectively.
For the experiment, cells were centrifuged (5 min at 300 g), resuspended, counted and washed once with 15 ml HBH (Hanks balanced salt solution containing 1 mg/ml bovine serum albumin and 20 mM HEPES; Invitrogen, Karlsruhe, Germany). Then the cells were resuspended at 1.33×10^6/ml (Jurkat, U937, BV-173) or 2.67×10^6/ml (Nalm-6), respectively. […]
For evaluation, fluorescence values were corrected for background fluorescence (no cells in well). Then the difference between experimental conditions with and without SDF-1 was calculated. The value for the sample without Spiegelmer (SDF-1 only) was set 100% and the values for the samples with Spiegelmer were calculated as percent of this. […]

Luc+/GFP+ MM.1S cells = test: Multiple myeloma animal model in SCID mice; type: in vivo
Text: The SDF-1/CXCR4 axis plays a major role in homing and trafficking of multiple myeloma (abbr. MM) cells to the bone marrow (abbr. BM). Therefore, de-adhesion of MM cells from the surrounding BM milieu through SDF-1 inhibition enhances MM sensitivity to therapeutic agents. Azab et al. published a protocol to test the CXCR4 inhibitor AMD3100 potency to disrupt the interaction of MM cells with the BM environment in vivo that affects localization MM cells [, which in turn enhances the sensitivity of MM cells to chemotherapy. […] Based on this protocol (Azab et al. 2009) the SDF-1 binding Spiegelmer NOX-A12 is tested for its potency to disupt the interaction of MM cells with the BM environment in vivo thereby enhancing the sensitivity of the MM cells to therapy.
For the MM animal model severe combined immunodeficient (SCID) mice are used whereby Luc+/GFP+ MM.1S cells (2×10^6/mouse) are injected into the tail vein of SCID mice. After 3 to 4 weeks, sufficient tumor progression is detected by bioluminescence imaging (for protocol see Azab et al. 2009). […]

Chain of human SDF-1α (P48061 22-89): as above

## 5′-40 kDa-PEG-GCGUGGUGUGAUCUAGAUGUAUUGGCUGAUCCUAGUCAGGUACGC (5' {PEG40k}, sugars by position and backbone not given here) [NOX-A12]
Human SDF-1α
  Kd: 0.2 nM
SDF-1
  inhibition of SDF-1 induced chemotaxis: Inhibition
Luc+/GFP+ MM.1S cells; NOX-A12 20 mg/kg s.c. every other day together with bortezomib 0.5 mg/kg i.p. twice a week
  tumor growth (in vivo bioluminescence): reduction of tumor growth
Luc+/GFP+ MM.1S cells; SCID mice, 20 mg/kg NOX-A12 subcutaneous every other day
  MM cell mobilization (ex vivo flow cytometry): MM cell mobilization from bone marrow to the blood
